What was measured:
[1] = Cytotoxicity against human H1299 cells assessed as growth inhibition after 72 hrs by Alamar Blue assay; type: functional, cell-based; details: NCI-H1299, 72 h
[2] = Cytotoxicity against human HCT116 cells assessed as growth inhibition after 72 hrs by Alamar Blue assay; type: functional, cell-based; details: HCT-116, 72 h
[3] = Cytotoxicity against human H460 cells assessed as growth inhibition after 72 hrs by Alamar Blue assay; type: functional, cell-based; details: NCI-H460, 72 h
[4] = Cytotoxicity against human PC3 cells assessed as growth inhibition after 72 hrs by Alamar Blue assay; type: functional, cell-based; details: PC-3, 72 h
CCRF-CEM [5] = test: Cytotoxicity against human CCRF-CEM cells assessed as growth inhibition after 72 hrs by Alamar Blue assay; type: functional, cell-based
CCRF-CEM [6] = test: Cytotoxicity against vinblastine-resistant human CCRF-CEM cells assessed as growth inhibition after 72 hrs by Alamar Blue assay; type: functional, cell-based
CCRF-CEM [7] = test: Resistance factor, ratio of IC50 for vinblastine-resistant human CCRF-CEM cells to IC50 for human CCRF-CEM cells; type: functional
[8] = Cytotoxicity against human DLD1 cells assessed as growth inhibition after 72 hrs by Alamar Blue assay; type: functional, cell-based; details: DLD-1, 72 h
HT-29 = test: Cytotoxicity against human HT-29 cells assessed as growth inhibition after 72 hrs by Alamar Blue assay; type: functional, cell-based; details: HT-29, 72 h
[9] = Cytotoxicity against human H3347 cells assessed as growth inhibition after 72 hrs by Alamar Blue assay; type: functional, cell-based; details: H3347, 72 h

| Compound | IC50 [1] | IC50 [2] | IC50 [3] | IC50 [4] | IC50 (CCRF-CEM [5]) | IC50 (CCRF-CEM [6]) | Ratio IC50 (CCRF-CEM [7]) | IC50 [8] | IC50 (HT-29) | IC50 [9] |
| --- | --- | --- | --- | --- | --- | --- | --- | --- | --- | --- |
| CN(C)CCNC(=O)c1ccc(NC(=O)Nc2ccc(N(CCCl)CCCl)cc2)cc1 | 32 µM | 5.64 µM | 31.6 µM | 6.25 µM | 0.57 µM | 106 µM | 186.47 |  |  |  |
| O=C(CN1CCOCC1)Nc1cccc(NC(=O)Nc2ccc(N(CCCl)CCCl)cc2)c1 | 26.4 µM | 13 µM | 19.5 µM | 35.8 µM | 3.87 µM | 1.32 µM | 0.34 |  |  |  |
| O=C(CCN1CCCC1)Nc1cccc(NC(=O)Nc2ccc(N(CCCl)CCCl)cc2)c1 | 4.33 µM | 5.11 µM | 9.84 µM | 10.3 µM | 0.67 µM | 27.1 µM | 40.42 |  |  |  |
| O=C(CN1CCCC1)Nc1cccc(NC(=O)Nc2ccc(N(CCCl)CCCl)cc2)c1 | 9.36 µM | 5.41 µM | 6.55 µM | 12.8 µM | 3.41 µM | 0.97 µM | 0.28 |  |  |  |
| CCN(CC)CCC(=O)Nc1cccc(NC(=O)Nc2ccc(N(CCCl)CCCl)cc2)c1 | 5.77 µM | 3.21 µM | 6.79 µM | 13 µM | 0.86 µM | 13 µM | 15.62 |  |  |  |
| O=C(Nc1ccc(C(=O)NCCN2CCCCC2)cc1)Nc1ccc(N(CCCl)CCCl)cc1 | 7.58 µM | 5.25 µM | 9.44 µM | 4.25 µM | 0.43 µM | 48.8 µM | 113.58 |  |  |  |
| O=C(CN1CCC(N2CCCCC2)CC1)Nc1cccc(NC(=O)Nc2ccc(N(CCCl)CCCl)cc2)c1 | 12.8 µM | 6.15 µM | 12.3 µM | 25.9 µM | 30.4 µM | 1.81 µM | 0.06 |  |  |  |
| O=C(CN1CCCCC1)Nc1ccc(NC(=O)Nc2ccc(N(CCCl)CCCl)cc2)cc1 | 2.52 µM | 0.99 µM | 1.05 µM | 2.24 µM | 0.31 µM | 1.45 µM | 4.68 | 4.53 µM | 11.8 µM | 1.16 µM |
| CN(C)CC(=O)Nc1cccc(NC(=O)Nc2ccc(N(CCCl)CCCl)cc2)c1 | 10.6 µM | 9.56 µM | 8.74 µM | 19 µM | 0.78 µM | 2.7 µM | 3.46 |  |  |  |
| O=C(CCN1CCC(N2CCCCC2)CC1)Nc1cccc(NC(=O)Nc2ccc(N(CCCl)CCCl)cc2)c1 | 11 µM | 15.7 µM | 14.2 µM | 22.1 µM | 1.63 µM | 1.53 µM | 0.94 |  |  |  |
| CN(C)CCC(=O)Nc1ccc(NC(=O)Nc2ccc(N(CCCl)CCCl)cc2)cc1 |  |  |  |  |  |  |  | 9.84 µM | 23.6 µM | 2.86 µM |
| CC[C@]1(O)C[C@H]2CN(CCc3c([nH]c4ccccc34)[C@@](C(=O)OC)(c3cc4c(cc3OC)N(C=O)[C@H]3[C@@](O)(C(=O)OC)[C@H](OC(C)=O)[C@]5(CC)C=CCN6CC[C@]43[C@@H]65)C2)C1 [VINCRISTINE] |  |  |  |  | 0.00232 µM | 2.13 µM |  |  |  |  |
| CN(C)CCC(=O)Nc1cccc(NC(=O)Nc2ccc(N(CCCl)CCCl)cc2)c1 | 8.99 µM | 3.28 µM | 16.8 µM | 13.5 µM | 0.52 µM | 14.4 µM | 27.67 |  |  |  |
| O=C(Nc1ccc(N(CCCl)CCCl)cc1)Nc1cccc(C(=O)NCCN2CCCC2)c1 | 18.7 µM | 4.9 µM | 34.1 µM | 6.54 µM | 0.53 µM | 126 µM | 238.42 |  |  |  |
| O=C(CCN1CCCCC1)Nc1cccc(NC(=O)Nc2ccc(N(CCCl)CCCl)cc2)c1 | 4.63 µM | 3.51 µM | 7.88 µM | 5.73 µM | 0.39 µM | 6.01 µM | 15.41 |  |  |  |
| O=C(CCN1CCOCC1)Nc1ccc(NC(=O)Nc2ccc(N(CCCl)CCCl)cc2)cc1 | 15.2 µM | 7.02 µM | 3.95 µM | 9.74 µM | 1.06 µM | 23.4 µM | 22.09 |  |  |  |
| O=C(Nc1ccc(C(=O)NCCN2CCCC2)cc1)Nc1ccc(N(CCCl)CCCl)cc1 | 18.5 µM | 6.48 µM | 17.8 µM | 4.53 µM | 0.56 µM | 133 µM | 237.2 |  |  |  |
| CC[C@]1(O)C[C@@H]2CN(CCc3c([nH]c4ccccc34)[C@@](C(=O)OC)(c3cc4c(cc3OC)N(C)[C@H]3[C@@](O)(C(=O)OC)[C@H](OC(C)=O)[C@]5(CC)C=CCN6CC[C@]43[C@@H]65)C2)C1 [VINBLASTINE] |  |  |  |  | 0.0013 µM | 0.67 µM |  |  |  |  |
| O=c1[nH]cc(F)c(=O)[nH]1 [FLUOROURACIL] |  |  |  |  |  |  |  | 29.1 µM | 24.9 µM | 11.6 µM |
| O=C(CN1CCC(N2CCCCC2)CC1)Nc1ccc(NC(=O)Nc2ccc(N(CCCl)CCCl)cc2)cc1 | 14.4 µM | 4.24 µM | 14.9 µM | 7.24 µM | 1.14 µM | 52.2 µM | 45.8 |  |  |  |
| O=C(CCN1CCC(N2CCCCC2)CC1)Nc1ccc(NC(=O)Nc2ccc(N(CCCl)CCCl)cc2)cc1 | 36 µM | 11.1 µM | 14.5 µM | 30 µM | 0.72 µM | 120 µM | 166.17 |  |  |  |
| O=C(CN1CCCCC1)Nc1cccc(NC(=O)Nc2ccc(N(CCCl)CCCl)cc2)c1 | 8.55 µM | 7.5 µM | 5.62 µM | 10.1 µM | 1.35 µM | 1.33 µM | 0.99 |  |  |  |
| O=C(CCN1CCOCC1)Nc1cccc(NC(=O)Nc2ccc(N(CCCl)CCCl)cc2)c1 | 15.9 µM | 16.8 µM | 38.5 µM | 35.5 µM | 3.1 µM | 4.84 µM | 1.56 |  |  |  |
| O=C(CN1CCOCC1)Nc1ccc(NC(=O)Nc2ccc(N(CCCl)CCCl)cc2)cc1 | 18.6 µM | 6.67 µM | 4.74 µM | 16 µM | 1.13 µM | 18.4 µM | 16.27 |  |  |  |
| O=C(Nc1ccc(N(CCCl)CCCl)cc1)Nc1cccc(C(=O)NCCN2CCCCC2)c1 | 10.3 µM | 5.47 µM | 12.8 µM | 4.54 µM | 0.57 µM | 28.4 µM | 49.91 |  |  |  |
| CCN(CC)CC(=O)Nc1cccc(NC(=O)Nc2ccc(N(CCCl)CCCl)cc2)c1 | 11.7 µM | 4.62 µM | 5.67 µM | 13 µM | 2.01 µM | 1.38 µM | 0.69 |  |  |  |
| O=C(CCN1CCCCC1)Nc1ccc(NC(=O)Nc2ccc(N(CCCl)CCCl)cc2)cc1 | 3.03 µM | 2.41 µM | 1.58 µM | 2.28 µM |  | 6.2 µM |  | 6.5 µM | 12.3 µM | 2.41 µM |
